Residue numbers refer to the chain shown, from its start. Names may count otherwise.
Assays:
hCHT = target: T1, hCHT (Homo sapiens, UniProt Q9GZV3); assay: [3H]HC-3 binding to membranes from HEK hCHT cells
T1 sequence (Q9GZV3 1-580): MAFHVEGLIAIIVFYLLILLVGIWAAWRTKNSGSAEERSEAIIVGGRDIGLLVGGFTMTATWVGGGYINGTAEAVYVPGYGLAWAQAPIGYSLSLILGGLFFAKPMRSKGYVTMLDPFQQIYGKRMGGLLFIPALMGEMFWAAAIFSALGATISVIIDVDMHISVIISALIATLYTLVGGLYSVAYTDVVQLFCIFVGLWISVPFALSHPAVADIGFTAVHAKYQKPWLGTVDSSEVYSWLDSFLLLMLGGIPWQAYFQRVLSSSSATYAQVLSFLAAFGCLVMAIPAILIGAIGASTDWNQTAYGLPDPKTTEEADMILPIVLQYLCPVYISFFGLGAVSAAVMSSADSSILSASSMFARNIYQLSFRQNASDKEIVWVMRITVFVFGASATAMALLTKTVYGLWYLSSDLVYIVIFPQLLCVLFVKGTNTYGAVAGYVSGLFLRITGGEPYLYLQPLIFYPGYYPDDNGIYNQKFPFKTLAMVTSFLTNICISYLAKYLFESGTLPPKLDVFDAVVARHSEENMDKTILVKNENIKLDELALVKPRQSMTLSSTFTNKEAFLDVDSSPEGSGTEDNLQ

WT hCHT = target: T2, WT hCHT (Homo sapiens, UniProt Q9GZV3); assay: cell-surface biotinylation, CHT surface expression in WT hCHT HEK 293 cells; type: cell-based
T2 sequence (Q9GZV3 1-580): T1 sequence (Q9GZV3 1-580)

[1] = substrate: C[N+](C)(C)CCO; assay: cells, lysate or membranes; settings: other: hCHT LV-AA transfected cells; no inhibitor; 37.0 °C

C[N+]1(C)CCOC(O)(c2ccc(-c3ccc(C4(O)C[N+](C)(C)CCO4)cc3)cc2)C1 (stereo not shown) [HC-3, hemicholinium-3, reference compound]
Kd (hCHT): 8.5 ± 1.1 nM | increase in steady-state hCHT surface expression (WT hCHT; 5 μM, 15 min incubation): 76 ± 16 % of control

C[N+](C)(C)CCO [choline]
effect of choline on CHT surface expression (WT hCHT; choline (10 μM), 15 min): no evidence for the previously reported choline-dependent reductions

B1: hCHT LV-AA (Homo sapiens; L531A/V532A) (protein)
chain: T1 sequence (Q9GZV3 1-580) with L531A, V532A
Km [1]: 2.5 ± 0.4 µM
